From ChEMBL document CHEMBL5465560, “Selectivity Literature for EUbOPEN Chemogenomic Library” (2024)

Key:
[1] = target: Tyrosine-protein kinase JAK1 (Homo sapiens, UniProt P23458); assay: Selectivity interaction (NanoBRET assay (HEK293T cells)) EUB0001558a JAK1; assay type: cell-based, HEK-293T
[2] = target: T1, Serine/threonine-protein kinase TAO2 (Homo sapiens) (UniProt Q9UL54); assay: Selectivity interaction (KinomeScan (DiscoverX)) EUB0000092b TAOK2; conditions: at 10 µM
T1 sequence (whole entry): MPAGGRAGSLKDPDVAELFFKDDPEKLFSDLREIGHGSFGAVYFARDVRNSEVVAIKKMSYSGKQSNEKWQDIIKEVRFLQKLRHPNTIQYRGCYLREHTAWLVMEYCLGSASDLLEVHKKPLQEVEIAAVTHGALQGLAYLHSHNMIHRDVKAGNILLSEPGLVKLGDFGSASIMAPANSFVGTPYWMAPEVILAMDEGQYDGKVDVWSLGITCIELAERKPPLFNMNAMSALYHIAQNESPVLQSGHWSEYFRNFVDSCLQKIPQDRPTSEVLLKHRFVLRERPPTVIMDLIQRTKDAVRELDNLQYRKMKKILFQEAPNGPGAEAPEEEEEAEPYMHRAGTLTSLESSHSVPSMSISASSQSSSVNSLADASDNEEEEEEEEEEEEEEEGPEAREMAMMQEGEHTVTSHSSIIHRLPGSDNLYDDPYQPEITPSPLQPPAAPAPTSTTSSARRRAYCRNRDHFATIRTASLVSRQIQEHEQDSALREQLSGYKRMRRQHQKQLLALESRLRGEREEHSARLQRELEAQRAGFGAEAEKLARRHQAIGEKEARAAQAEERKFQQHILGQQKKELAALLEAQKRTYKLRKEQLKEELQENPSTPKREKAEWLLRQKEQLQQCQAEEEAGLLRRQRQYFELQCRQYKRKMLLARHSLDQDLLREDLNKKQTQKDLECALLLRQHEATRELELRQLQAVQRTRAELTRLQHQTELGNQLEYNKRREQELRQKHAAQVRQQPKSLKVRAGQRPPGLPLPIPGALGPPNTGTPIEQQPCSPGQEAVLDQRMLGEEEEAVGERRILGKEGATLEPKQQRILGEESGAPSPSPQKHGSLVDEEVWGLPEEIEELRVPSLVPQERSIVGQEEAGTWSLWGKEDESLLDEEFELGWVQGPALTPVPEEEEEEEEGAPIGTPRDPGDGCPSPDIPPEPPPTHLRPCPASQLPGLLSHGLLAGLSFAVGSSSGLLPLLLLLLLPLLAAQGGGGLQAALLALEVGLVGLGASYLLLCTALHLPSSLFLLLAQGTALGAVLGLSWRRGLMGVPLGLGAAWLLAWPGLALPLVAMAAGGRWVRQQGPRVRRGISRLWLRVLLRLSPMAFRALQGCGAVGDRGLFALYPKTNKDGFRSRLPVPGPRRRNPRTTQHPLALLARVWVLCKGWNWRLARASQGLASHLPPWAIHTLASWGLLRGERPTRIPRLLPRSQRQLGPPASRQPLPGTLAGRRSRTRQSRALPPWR

[3] = target: T2, Dual specificity tyrosine-phosphorylation-regulated kinase 3 (Homo sapiens) (UniProt O43781); assay: Selectivity interaction (Kinase panel (Invitrogen)) EUB0000639a DYRK3; conditions: at 200 nM
T2 sequence (whole entry): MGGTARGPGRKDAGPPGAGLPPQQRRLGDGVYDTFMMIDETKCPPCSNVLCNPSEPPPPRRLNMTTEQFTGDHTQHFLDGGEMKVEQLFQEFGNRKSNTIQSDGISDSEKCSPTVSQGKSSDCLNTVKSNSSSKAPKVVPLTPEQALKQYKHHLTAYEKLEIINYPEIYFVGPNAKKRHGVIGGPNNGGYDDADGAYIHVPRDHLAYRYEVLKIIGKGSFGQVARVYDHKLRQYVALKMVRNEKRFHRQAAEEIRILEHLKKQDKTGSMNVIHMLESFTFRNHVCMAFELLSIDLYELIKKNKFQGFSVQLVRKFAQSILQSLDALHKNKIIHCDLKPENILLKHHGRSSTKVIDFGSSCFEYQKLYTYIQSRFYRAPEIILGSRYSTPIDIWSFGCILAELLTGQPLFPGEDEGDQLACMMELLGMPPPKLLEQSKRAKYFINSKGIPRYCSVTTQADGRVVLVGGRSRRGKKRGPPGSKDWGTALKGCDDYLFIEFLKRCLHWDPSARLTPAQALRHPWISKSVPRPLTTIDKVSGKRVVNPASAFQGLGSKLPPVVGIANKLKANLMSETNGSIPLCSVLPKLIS

[4] = target: T3, Rhodopsin kinase GRK1 (Homo sapiens) (UniProt Q15835); assay: Selectivity interaction (KinomeScan (DiscoverX)) EUB0000607a GRK1; conditions: at 10 µM
T3 sequence (whole entry): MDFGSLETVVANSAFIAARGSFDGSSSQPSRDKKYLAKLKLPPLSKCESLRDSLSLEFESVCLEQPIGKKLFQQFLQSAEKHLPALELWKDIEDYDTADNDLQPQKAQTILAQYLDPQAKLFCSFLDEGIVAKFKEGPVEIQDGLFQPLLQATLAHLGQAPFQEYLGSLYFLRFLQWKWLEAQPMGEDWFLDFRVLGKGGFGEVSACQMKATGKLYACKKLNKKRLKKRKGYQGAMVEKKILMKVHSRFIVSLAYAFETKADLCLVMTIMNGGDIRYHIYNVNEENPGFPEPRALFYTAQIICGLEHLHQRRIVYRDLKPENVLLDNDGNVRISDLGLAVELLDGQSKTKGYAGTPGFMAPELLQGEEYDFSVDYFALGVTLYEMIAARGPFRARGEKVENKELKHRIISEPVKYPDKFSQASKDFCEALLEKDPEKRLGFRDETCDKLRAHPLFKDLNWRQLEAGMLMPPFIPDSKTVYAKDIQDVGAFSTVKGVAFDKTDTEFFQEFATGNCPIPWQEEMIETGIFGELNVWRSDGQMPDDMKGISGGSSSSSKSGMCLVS

[5] = target: Kappa-type opioid receptor (Homo sapiens, UniProt P41145); assay: Selectivity interaction (Panel of non-epigenetic targets (kinases, GPCRs, ion channels, and transporters, Eurofins) ) EUB0000271b OPRK1; conditions: at 1 µM
Sequence of Kappa-type opioid receptor (P41145 whole entry): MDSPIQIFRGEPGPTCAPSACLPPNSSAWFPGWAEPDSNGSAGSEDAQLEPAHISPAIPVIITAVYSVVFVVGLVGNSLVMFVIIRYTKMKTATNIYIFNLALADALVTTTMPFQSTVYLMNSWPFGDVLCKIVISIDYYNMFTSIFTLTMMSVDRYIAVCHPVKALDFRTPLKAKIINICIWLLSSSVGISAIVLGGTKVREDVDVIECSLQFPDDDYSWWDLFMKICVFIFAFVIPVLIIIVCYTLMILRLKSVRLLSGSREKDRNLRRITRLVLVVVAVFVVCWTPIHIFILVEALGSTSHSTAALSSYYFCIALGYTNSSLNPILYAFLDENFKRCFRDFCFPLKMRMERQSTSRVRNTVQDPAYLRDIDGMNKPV

[6] = target: Histone-lysine N-methyltransferase, H3 lysine-79 specific (Homo sapiens, UniProt Q8TEK3); assay: Selectivity interaction (Methyltransferase screen (radiometric assays, panel of 8 PRMTs, 21 protein lysine methyltransferases, 3 DNA methyltransferases, and one RNA methyltransferase)) EUB0000271b DOT1L
Sequence of Histone-lysine N-methyltransferase, H3 lysine-79 specific (Q8TEK3 whole entry, looked up): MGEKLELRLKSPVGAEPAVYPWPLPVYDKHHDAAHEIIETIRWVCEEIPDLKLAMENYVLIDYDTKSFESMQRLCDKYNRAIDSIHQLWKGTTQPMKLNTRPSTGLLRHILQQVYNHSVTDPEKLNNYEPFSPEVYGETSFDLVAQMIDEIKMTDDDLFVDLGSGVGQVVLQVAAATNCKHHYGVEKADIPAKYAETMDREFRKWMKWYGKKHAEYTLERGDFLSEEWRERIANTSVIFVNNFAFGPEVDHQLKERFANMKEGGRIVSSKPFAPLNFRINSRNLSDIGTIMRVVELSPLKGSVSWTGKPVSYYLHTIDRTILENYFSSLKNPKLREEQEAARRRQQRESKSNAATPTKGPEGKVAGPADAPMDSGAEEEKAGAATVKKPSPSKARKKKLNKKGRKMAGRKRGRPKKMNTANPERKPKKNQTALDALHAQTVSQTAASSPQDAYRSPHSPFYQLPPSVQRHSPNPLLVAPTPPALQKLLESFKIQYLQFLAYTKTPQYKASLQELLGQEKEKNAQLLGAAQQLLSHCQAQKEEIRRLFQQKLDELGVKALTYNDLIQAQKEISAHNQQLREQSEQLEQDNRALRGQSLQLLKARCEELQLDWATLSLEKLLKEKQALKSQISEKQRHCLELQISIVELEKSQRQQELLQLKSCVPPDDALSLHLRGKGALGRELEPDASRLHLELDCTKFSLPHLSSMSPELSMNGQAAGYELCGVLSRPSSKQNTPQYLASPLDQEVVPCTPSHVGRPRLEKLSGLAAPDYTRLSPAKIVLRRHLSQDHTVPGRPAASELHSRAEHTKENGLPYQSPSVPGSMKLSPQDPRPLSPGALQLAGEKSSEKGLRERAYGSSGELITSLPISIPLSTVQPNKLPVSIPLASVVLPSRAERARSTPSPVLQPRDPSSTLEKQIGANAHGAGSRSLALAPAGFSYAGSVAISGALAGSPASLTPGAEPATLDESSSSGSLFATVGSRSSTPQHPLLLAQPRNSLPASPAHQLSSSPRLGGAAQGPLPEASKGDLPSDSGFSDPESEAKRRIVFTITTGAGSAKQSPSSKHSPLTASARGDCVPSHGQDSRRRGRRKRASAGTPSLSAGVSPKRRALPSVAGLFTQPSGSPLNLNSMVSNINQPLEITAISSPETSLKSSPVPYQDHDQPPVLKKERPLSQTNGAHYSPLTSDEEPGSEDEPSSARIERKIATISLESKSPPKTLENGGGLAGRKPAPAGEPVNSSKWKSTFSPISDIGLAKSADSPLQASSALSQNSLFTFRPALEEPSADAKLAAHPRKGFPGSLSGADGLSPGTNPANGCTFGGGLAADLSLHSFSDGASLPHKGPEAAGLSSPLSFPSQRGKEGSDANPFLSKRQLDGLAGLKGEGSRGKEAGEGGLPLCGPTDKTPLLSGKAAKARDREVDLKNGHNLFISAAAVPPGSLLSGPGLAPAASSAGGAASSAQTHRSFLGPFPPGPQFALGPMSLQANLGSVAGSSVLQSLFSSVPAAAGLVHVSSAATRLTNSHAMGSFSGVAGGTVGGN

Sequence of Tyrosine-protein kinase JAK1 (P23458 whole entry): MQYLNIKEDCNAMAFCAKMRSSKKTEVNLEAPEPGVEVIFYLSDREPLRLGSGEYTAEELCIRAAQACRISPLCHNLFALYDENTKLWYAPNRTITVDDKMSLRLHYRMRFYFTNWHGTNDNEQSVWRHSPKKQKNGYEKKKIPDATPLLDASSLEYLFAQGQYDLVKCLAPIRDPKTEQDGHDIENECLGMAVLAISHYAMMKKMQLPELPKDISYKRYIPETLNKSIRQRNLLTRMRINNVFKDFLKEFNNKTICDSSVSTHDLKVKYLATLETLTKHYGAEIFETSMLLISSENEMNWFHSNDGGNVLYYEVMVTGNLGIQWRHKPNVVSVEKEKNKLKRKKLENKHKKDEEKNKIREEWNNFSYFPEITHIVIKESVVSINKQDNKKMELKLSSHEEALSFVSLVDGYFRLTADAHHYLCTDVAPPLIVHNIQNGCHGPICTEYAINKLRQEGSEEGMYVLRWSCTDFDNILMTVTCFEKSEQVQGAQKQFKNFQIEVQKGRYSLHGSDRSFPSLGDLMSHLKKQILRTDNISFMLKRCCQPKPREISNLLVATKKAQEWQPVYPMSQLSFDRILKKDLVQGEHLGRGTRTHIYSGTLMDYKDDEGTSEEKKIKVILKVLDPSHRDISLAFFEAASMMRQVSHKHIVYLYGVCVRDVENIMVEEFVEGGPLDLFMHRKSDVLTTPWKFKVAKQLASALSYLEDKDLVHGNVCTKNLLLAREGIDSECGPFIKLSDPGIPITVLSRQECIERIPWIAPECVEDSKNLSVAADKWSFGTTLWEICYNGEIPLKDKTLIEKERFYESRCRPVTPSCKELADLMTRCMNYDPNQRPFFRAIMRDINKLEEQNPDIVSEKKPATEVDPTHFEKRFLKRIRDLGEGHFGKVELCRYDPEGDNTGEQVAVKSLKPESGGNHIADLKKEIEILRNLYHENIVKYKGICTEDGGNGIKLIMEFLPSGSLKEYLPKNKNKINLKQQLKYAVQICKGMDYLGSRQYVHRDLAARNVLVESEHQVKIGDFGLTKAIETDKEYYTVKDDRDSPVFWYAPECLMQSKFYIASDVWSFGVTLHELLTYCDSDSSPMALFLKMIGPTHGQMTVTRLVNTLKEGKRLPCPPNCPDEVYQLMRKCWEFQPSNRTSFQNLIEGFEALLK

Compound: CC(C)(O)[C@H](F)CN1Cc2cc(NC(=O)c3cnn4cccnc34)c(N3CCOCC3)cc2C1=O
- EC50 [1]: > 50 µM

Compound: CCC(=O)N1CCN(c2ccc(-n3c(=O)ccc4cnc5ccc(-c6cnc7ccccc7c6)cc5c43)cc2C(F)(F)F)CC1
- % of control [2]: 84%

Compound: CC[C@@H]1[C@H](F)C(=O)N[C@@H]1COc1nccc2cc(C(N)=O)c(OC)cc12 [ZIMLOVISERTIB]
- % of inhibition [3]: 6.43%

Compound: CNC(=O)Nc1ccc(-c2nc(N3CC4CCC(C3)O4)c3cnn(C4CCC5(CC4)OCCO5)c3n2)cc1
- % of control [4]: 100%

Compound: Cc1cc(C)cc([C@@H]2c3cc(C)ccc3NC(=O)CN2C(=O)c2ccc(Br)s2)c1
- % of inhibition [5]: 20%
- % of activity ([6]; at 1 µM): 102%
- % of activity ([6]; at 10 µM): 92.7%
